Common to all, as to assay type: cell-based, human
The test system of one assay is NCI-H441 cells. The assay is described as follows: 3D cell proliferation assay (CellTiter Glo-3D), NCI-H441. The following applies: medium with 2% FBS, read-out: H441 AP IC50. In outline:
(§1)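 NCI-H441 ([…] lung) and AsPC-1 (KRAS G12D pancreatic) cells, 800 per well, were seeded in RPMI-1640 with 2% FBS and dosed next day with 3.16-fold compound dilutions (0.1% DMSO). After 5 days at 37 °C, CellTiter-Glo 3D luminescence gave inhibition versus DMSO and blank; IC50 from four-parameter fit.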

Assay [1] concerns AsPC-1 cells (KRAS G12D mutation). The assay is described as follows: 3D cell proliferation assay (CellTiter Glo-3D), AsPC-1. The settings on record: medium with 2% FBS, read-out: AsPC-1 AP IC50. In outline:
as §1

The test system of assay [2] is p-ERK in NCI-H441 cells (KRAS G12V mutation). Briefly: Cell p-ERK assay (HTRF) in NCI-H441 cells. The following applies: NCI-H441 cells, 3 h compound incubation, HTRF p-ERK T202/Y204, read-out: H441 p-ERK IC50. The procedure, abridged: (§2)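 AsPC-1 (10000/well) or NCI-H441 (20000/well) cells were seeded in RPMI-1640 with 10% FBS, grown overnight, then exposed to 3.16-fold compound dilutions (0.1% DMSO) for 3 h at 37 °C. Lysates were read for phospho-ERK T202/Y204 by HTRF; IC50 came from four-parameter fits of inhibition versus DMSO and blank wells.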
Background: In TR-FRET formats the signal depends on donor and acceptor labels being close together.

Assay [3] has as its system p-ERK in AsPC-1 cells (KRAS G12D mutation). The assay is described as follows: Cell p-ERK assay (HTRF) in AsPC-1 cells. The settings on record: AsPC-1 cells, 3 h compound incubation, HTRF p-ERK T202/Y204, read-out: AsPC-1 p-ERK IC50. In outline: as §2
Setting [4] is: Homo sapiens, NCI-H441, 3D cell proliferation (CellTiter Glo-3D).
The mark [5] stands for this setting: Homo sapiens, ASPC1, 3D cell proliferation (CellTiter Glo-3D).
Setting [6] is: 3D cell proliferation (CellTiter Glo-3D).

Counter-ions that a name gives are not always drawn. Like-named read-outs stand apart in the source and are kept apart here.

Consider 13 compounds from patent publication US20260234165A1, “MACROCYCLIC COMPOUNDS, PREPARATION METHOD THEREFOR, AND USE THEREOF” (GENFLEET THERAPEUTICS (SHANGHAI) INC., priority 2004, published 2026).

One may read the IC50 as the point on the concentration scale where inhibition reaches its midpoint. Regarding `CCn1c(-c2cc(C#CC(C)N3CCC3)cnc2[C@H](C)OC)c2c3cc(ccc31)-c1csc(n1)C[C@H](NC(=O)[C@H]1[C@H](C)[C@@H]1C)C(=O)N1CCC[C@H](N1)C(=O)OCC(C)(C)C2` (atropisomer, axis not shown; (Sa)) [Compound Z613-2, (1r,2R,3S)—N-((6^3S,4S,Z)-12-(5-(3-(azetidin-1-yl)but-1-yn-1-yl)-(Sa)-2-((S)-1-methoxyethyl)pyridin-3-yl)-4′-ethyl-10,10-dimethyl-5,7-dioxo-6^1,6^2,6^3,6^4,6^5,6^6-hexahydro-1^1H-8-oxa-2(4,2)-thiazola-(5,3)-indola-6(1,3)-pyridazinacycloundecaphane-4-yl)-2.3-dimethylcyclopropane-1-carboxamide], the IC50 amounted to 0.7 nM in the assay with NCI-H441 cells (setting [4]); 0.79 nM in assay [1] (setting [5]); 0.34 nM in assay [2] (Homo sapiens, NCI-H441, 3 h); 0.68 nM in assay [3] (Homo sapiens, ASPC1, 3 h).
As to `CCn1c(-c2cc(C#CCN3CCCS(=O)(=O)CC3)cnc2[C@H](C)OC)c2c3cc(ccc31)-c1csc(n1)C[C@H](Nc1nnc3cc(C)ccn13)C(=O)N1CCC[C@H](N1)C(=O)OCC(C)(C)C2` (atropisomer, axis not shown; (Ra)) [Compound Z979], the IC50 in the assay on NCI-H441 cells (setting [4]) was 1.23 nM; in assay [1] (setting [5]), 5.14 nM; in assay [2] (Homo sapiens, NCI-H441, 3 h), 1.05 nM; in assay [3] (Homo sapiens, ASPC1, 3 h), 2.47 nM.
Turning to `CCn1c(-c2cc(C#CC3(N4CCCOCC4)CC3)cnc2[C@H](C)OC)c2c3cc(ccc31)-c1csc(n1)C[C@H](NC(=O)[C@H]1[C@H](C)[C@@H]1C)C(=O)N1CCC[C@H](N1)C(=O)OCC(C)(C)C2` (atropisomer, axis not shown; (Ra)) [Compound Z645, (1r,2R,3S)—N-((4S,Z)—(Ra)-1-(5-((1-(1,4-oxazepan-4-yl)cyclopropyl)ethynyl)-2-((S)-1-methoxyethyl)pyridin-3-yl)-1^1-ethyl-10,10-dimethyl-5,7-dioxo-6^1,6^2,6^3,6^4,6^5,6^6-hexahydro-1^1H-8-oxa-2(4,2)-thiazola-1(5,3)-indola-6(1,3)-pyridazinacycloundecaphane-4-yl)-2,3-dimethylcyclopropane-1-carboxamide], the IC50 came out at 0.5 nM with NCI-H441 cells (setting [6]), 0.81 nM in assay [1] (setting [6]), 0.48 nM in assay [2] and 0.15 nM in assay [3].
As for `CCn1c(-c2cc(OCC3(CN4CCCOCC4)CC3)cnc2[C@H](C)OC)c2c3cc(ccc31)-c1csc(n1)C[C@H](NC(=O)[C@H]1[C@H](C)[C@@H]1C)C(=O)N1CCC[C@H](N1)C(=O)OCC1(CC1)C2` (atropisomer, axis not shown; (Ra)) [Compound Z498], the IC50 in the assay on NCI-H441 cells (setting [4]) amounted to 5.58 nM; in assay [1] (setting [5]) it was 8.99 nM; in assay [2] (Homo sapiens, NCI-H441, 3 h) it was 4.06 nM; in assay [3] (Homo sapiens, ASPC1, 3 h), 10.9 nM.
The matching figures for `CCn1c(-c2cc(C#CCN3CCCOCC3)cnc2[C@H](C)OC)c2c3cc(ccc31)-c1csc(n1)C[C@H](NC(=O)C[C@@H]1CC1(F)F)C(=O)N1CCC[C@H](N1)C(=O)OCC(C)(C)C2` (atropisomer, axis not shown; (Ra)) [Compound Z932-1, N-((6^3S,4S,Z)—(Ra)-1′-(5-(3-(1,4-oxazepan-4-yl)prop-1-yn-1-yl)-2-((S)-1-methoxyethyl)pyridin-3-yl)-1^1-ethyl-10,10-dimethyl-5,7-dioxo-6^1,6^2,6^3,6^4,6^5,6^6-hexahydro-1^1H-8-oxa-2(4,2)-thiazola-1(5,3)-indola-6(1,3)-pyridazinacycloundecaphane-4-yl)-2-((R)-2,2-difluorocyclopropyl)acetamide]: 2.25 nM, 3.82 nM, 1.02 nM and 2.28 nM.
For `CCn1c(-c2cc(C#C[C@H]3CCCN3C)cnc2[C@H](C)OC)c2c3cc(ccc31)-c1csc(n1)C[C@H](NC(=O)[C@H]1[C@H](C)[C@@H]1C)C(=O)N1CCC[C@H](N1)C(=O)OCC(C)(C)C2` (atropisomer, axis not shown; (Ra)) [Compound Z599, (1r,2S,3R)—N-((6^3S,4S,Z)—(Ra)-1^2-(5-(((R)-1-methylpyrrolidin-2-yl)ethynyl)-2-((S)-1-methoxyethyl)pyridin-3-yl)-1^1-ethyl-10,10-dimethyl-5,7-dioxo-6^1,6^2,6^3,6^4,6^5,6^6-hexahydro-1^1H-8-oxa-2(4,2)-thiazola-1(5,3)-indola-6(1,3)-pyridazinacycloundecaphane-4-yl)-2,3-dimethylcyclopropane-1-carboxamide], the IC50 in the assay with NCI-H441 cells (setting [4]) is 1.17 nM; in assay [1] (setting [5]), 2.15 nM; in assay [2] (Homo sapiens, NCI-H441, 3 h), 0.7 nM; in assay [3] (Homo sapiens, ASPC1, 3 h), 1.05 nM.
Consider `CCn1c(-c2cc(C#CCN3CCN(C)CC3)cnc2[C@H](C)OC)c2c3cc(ccc31)-c1csc(n1)C[C@H](NC(=O)[C@H]1[C@H](C)[C@@H]1C)C(=O)N1CCC[C@H](N1)C(=O)OCC(C)(C)C2` (atropisomer, axis not shown; (Ra)) [Compound Z703], for which the IC50 with NCI-H441 cells (setting [4]) was found to be 0.3 nM; in assay [1] (setting [5]) it was 0.68 nM; in assay [2] (Homo sapiens, NCI-H441, 3 h) it was 0.17 nM; in assay [3] (Homo sapiens, ASPC1, 3 h), 0.36 nM.
For `C=C1CCN2CCN(c3cnc([C@H](C)OC)c(-c4c5c6cc(ccc6n4CC)-c4csc(n4)C[C@H](NC(=O)[C@H]4[C@H](C)[C@@H]4C)C(=O)N4CCC[C@H](N4)C(=O)OCC(C)(C)C5)c3)C[C@H]2C1` (atropisomer, axis not shown; (Ra)) [Compound Z309, (1r,2R,3S)—N-((6^3S,4S,Z)-1^1-ethyl-(Ra)-1^2-(2-((S)-1-methoxyethyl)-5-((R)-8-methyleneoctahydro-2H-pyrido[1,2-a]pyrazin-2-yl)pyridin-3-yl)-10,10-dimethyl-5,7-dioxo-6^1,6^2,6^3,6^4,6^5,6^6-hexahydro-1^1H-8-oxa-2(4,2)-thiazola-1(5,3)-indola-6(1,3)-pyridazinacycloundecaphane-4-yl)-2,3-dimethylcyclopropane-1-carboxamide], the IC50 with NCI-H441 cells (setting [4]) worked out at 0.62 nM; in assay [1] (setting [5]), 2.09 nM; in assay [2], 0.96 nM; in assay [3] it was 0.38 nM.
With `CCn1c(-c2cc(C#CCN3CCCOCC3)c[n+]([O-])c2[C@H](C)O)c2c3cc(ccc31)-c1csc(n1)C[C@H](NC(=O)[C@H]1[C@H](C)[C@@H]1C)C(=O)N1CCC[C@H](N1)C(=O)OCC(C)(C)C2` (single isomer, unassigned) [Compound Z1039], the IC50 is 1.21 nM with NCI-H441 cells (setting [4]); 1.28 nM in assay [1] (setting [5]); 0.51 nM in assay [2] (Homo sapiens, NCI-H441, 3 h); 0.95 nM in assay [3] (Homo sapiens, ASPC1, 3 h).
Turning to `CCn1c(-c2cc(OCCN3CCN(C)S(=O)(=O)CC3)cnc2[C@H](C)OC)c2c3cc(ccc31)-c1csc(n1)C[C@H](NC(=O)[C@H]1[C@H](C)[C@@H]1C)C(=O)N1CCC[C@H](N1)C(=O)OCC(C)(C)C2` (atropisomer, axis not shown; (Ra)) [Compound Z796], the IC50 in the assay with NCI-H441 cells (setting [4]) worked out at 0.28 nM; in assay [1] (setting [5]) it was 1.1 nM; in assay [2] (Homo sapiens, NCI-H441, 3 h), 0.55 nM; in assay [3] (Homo sapiens, ASPC1, 3 h), 0.42 nM.
Consider `CCn1c(-c2cc([C@@H]3CCN4CCOC[C@H]4C3)cnc2[C@H](C)OC)c2c3cc(ccc31)-c1csc(n1)C[C@H](NC(=O)[C@H]1[C@H](C)[C@@H]1C)C(=O)N1CCC[C@H](N1)C(=O)OCC1(CC1)C2` (single isomer, unassigned) [Compound Z80], for which the IC50 with NCI-H441 cells (setting [4]) came out at 7.27 nM; in assay [1] (setting [5]), 19 nM; in assay [2] (Homo sapiens, NCI-H441, 3 h), 11.7 nM; in assay [3] (Homo sapiens, ASPC1, 3 h), 25.3 nM.
`CCn1c(-c2cc(N3CCN(C)CC3)cnc2[C@H](C)OC)c2c3cc(ccc31)-c1csc(n1)C[C@H](NC1=NCCO1)C(=O)N1CCC[C@H](N1)C(=O)OCC(C)(C)C2` (atropisomer, axis not shown; (Ra)) [Compound Z71, (6^3S,4S,Z)-1^1-ethyl-(Ra)-1^2-(2-((S)-1-methoxyethyl)-5-(4-methylpiperazin-1-yl)pyridin-3-yl)-10,10-dimethyl-4-((4.5-dihydrooxazol-2-yl)amino)-6^1,6^2,6^3,6^4,6^5,6^6-hexahydro-1^1H-8-oxa-2(4,2)-thiazola-1(5,3)-indola-6(1,3)-pyridazinacycloundecaphane-5,7-dione formate]: the IC50 turned out to be 149 nM in the assay on NCI-H441 cells (setting [4]); 302 nM in assay [1] (setting [5]); 41.7 nM in assay [2] (Homo sapiens, NCI-H441, 3 h); 96.4 nM in assay [3] (Homo sapiens, ASPC1, 3 h).
For the compound “(1S,2R,3S)—N-((6^3S,4S,Z)—(Ra)-1^2-(5-(2-(4-oxa-7-azaspiro[2,5]octan-7-yl)ethoxy)-2-((S)-1-methoxyethyl)pyridin-3-yl)-11-ethyl-10,10-dimethyl-5,7-dioxo-6^1,6^2,6^3,6^4,6^5,6^6-hexahydro-1^1H-8-oxa-2(4,2)-thiazola-1(5,3)-indola-6(1,3)- pyridazinacycloundecaphane-4-yl)-2-methyl-3-(pyrimidin-4-yl)cyclopropane-1-carboxamide [Compound Z661-1]”, the IC50 with NCI-H441 cells (setting [6]) amounted to 42.6 nM; in assay [1] (setting [6]) it was 97.2 nM; in assay [2], 37.7 nM; in assay [3] it was 93 nM.
